The record followed here is patent publication US20220389007A1, “INHIBITORS OF HUMAN IMMUNODEFICIENCY VIRUS REPLICATION” (VIIV HEALTHCARE UK (No. 5) LIMITED, priority 2019, published 2022).

One series relates to recombinant NL4-3 virus. As to the kind of experiment: HIV cell culture assay (antiviral activity, luciferase readout). Type of series: cell-based. Particulars: Human immunodeficiency virus 1, NL43, MT2, MT-2 cells infected for 4-5 days with recombinant NL4-3 virus carrying Renilla luciferase. A digest of the protocol: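 MT-2 cells infected for 4-5 days with NL4-3 reference virus carrying Renilla luciferase in place of part of nef, in presence of serial compound dilutions. Luciferase read with live-cell substrate; EC50 from median effect equation fit.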

A short description of series [1]: Compound cytotoxicity, XTT-based colorimetric assay. In kind it is cell-based. Particulars: human; uninfected MT2 cells, day 4, XTT assay. In a few lines: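 Run under the antiviral-assay protocol but without virus. Viability was read on day 4 and CC50 values were derived from the readout.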

Bounds are passed on as bounds.

For `Cc1cc(-c2ccc3c(=O)n(-c4ccc(Cl)c5c(NS(C)(=O)=O)nn(C)c45)c([C@H](Cc4cc(F)cc(F)c4)NC(=O)Cn4nc(C(F)F)c5c4C(F)(F)[C@@H]4C[C@H]54)nc3n2)n(C)n1` (atropisomer, axis not shown; (P)) [Example 70, N-((S)-1-((3P)-3-(4-chloro-1-methyl-3-(methylsulfonamido)-1H-indazol-7-yl)-7-(1,3-dimethyl-1H-pyrazol-5-yl)-4-oxo-3,4-dihydropyrido[2,3-d]pyrimidin-2-yl)-2-(3,5-difluorophenyl)ethyl)-2-((3bS,4aR)-3-(difluoromethyl)-5,5-difluoro-3b,4,4a,5-tetrahydro-1H-cyclopropa[3,4]cyclopenta[1,2-c]pyrazol-1-yl)acetamide], in the series with recombinant NL4-3 virus, the concentration giving a half-maximal response (EC50) amounted to 0.041 nM. In addition, the 50% cytotoxic concentration (CC50) at 4 day in series [1] is above 100 nM.
Taken in the same sequence, the figures for `Cn1nc(NS(C)(=O)=O)c2c(Cl)ccc(-n3c([C@H](Cc4cc(F)cc(F)c4)NC(=O)Cn4nc(C(F)F)c5c4C(F)(F)[C@@H]4C[C@H]54)nc4nc(-c5ccc(OC(F)F)cc5)ccc4c3=O)c21` (atropisomer, axis not shown; (P)) [Example 27, N-((S)-1-((3P)-3-(4-chloro-1-methyl-3-(methylsulfonamido)-1H-indazol-7-yl)-7-(4-(difluoromethoxy)phenyl)-4-oxo-3,4-dihydropyrido[2,3-d]pyrimidin-2-yl)-2-(3,5-difluorophenyl)ethyl)-2-((3bS,4aR)-3-(difluoromethyl)-5,5-difluoro-3b,4,4a,5-tetrahydro-1H-cyclopropa[3,4]cyclopenta[1,2-c]pyrazol-1-yl)acetamide] were 0.34 nM and above 100 nM.
For `CC(C)Cn1nccc1-c1ccc2c(=O)n(-c3ccc(Cl)c4c(NS(C)(=O)=O)nn(C)c34)c([C@H](Cc3cc(F)cc(F)c3)NC(=O)Cn3nc(C(F)F)c4c3C(F)(F)[C@@H]3C[C@H]43)nc2n1` (atropisomer, axis not shown; (P)) [Example 69, N-((S)-1-((3P)-3-(4-chloro-1-methyl-3-(methylsulfonamido)-1H-indazol-7-yl)-7-(1-isobutyl-1H-pyrazol-5-yl)-4-oxo-3,4-dihydropyrido[2,3-d]pyrimidin-2-yl)-2-(3,5-difluorophenyl)ethyl)-2-((3bS,4aR)-3-(difluoromethyl)-5,5-difluoro-3b,4,4a,5-tetrahydro-1H-cyclopropa[3,4]cyclopenta[1,2-c]pyrazol-1-yl)acetamide], in that order: 0.099 nM and above 100 nM.
Take `Cn1nc(NS(C)(=O)=O)c2c(Cl)ccc(-n3c([C@H](Cc4cc(F)cc(F)c4)NC(=O)Cn4nc(C(F)F)c5c4C(F)(F)[C@@H]4C[C@H]54)nc4nc(-c5cncc(C(F)(F)F)n5)ccc4c3=O)c21` (atropisomer, axis not shown; (P)) [Example 13, N-((S)-1-((3P)-3-(4-chloro-1-methyl-3-(methylsulfonamido)-1H-indazol-7-yl)-4-oxo-7-(6-(trifluoromethyl)pyrazin-2-yl)-3,4-dihydropyrido[2,3-d]pyrimidin-2-yl)-2-(3,5-difluorophenyl)ethyl)-2-((3bS,4aR)-3-(difluoromethyl)-5,5-difluoro-3b,4,4a,5-tetrahydro-1H-cyclopropa[3,4]cyclopenta[1,2-c]pyrazol-1-yl)acetamide]: in the series with recombinant NL4-3 virus, the concentration giving a half-maximal response (EC50) turned out to be 0.04 nM. In series [1], this compound gave a CC50 at 4 day above 100 nM.
Taken in the same sequence, the figures for `Cn1nc(NS(C)(=O)=O)c2c(Cl)ccc(-n3c([C@H](Cc4cc(F)cc(F)c4)NC(=O)Cn4nc(C(F)F)c5c4C(F)(F)[C@@H]4C[C@H]54)nc4nc(-c5csc(C(C)(C)O)n5)ccc4c3=O)c21` (atropisomer, axis not shown; (P)) [Example 91, N-((S)-1-((3P)-3-(4-chloro-1-methyl-3-(methylsulfonamido)-1H-indazol-7-yl)-7-(2-(2-hydroxypropan-2-yl)thiazol-4-yl)-4-oxo-3,4-dihydropyrido[2,3-d]pyrimidin-2-yl)-2-(3,5-difluorophenyl)ethyl)-2-((3bS,4aR)-3-(difluoromethyl)-5,5-difluoro-3b,4,4a,5-tetrahydro-1H-cyclopropa[3,4]cyclopenta[1,2-c]pyrazol-1-yl)acetamide] were 0.037 nM and above 100 nM.
Taken in the same sequence, the figures for `Cn1nc(NS(C)(=O)=O)c2c(Cl)ccc(-n3c([C@H](Cc4cc(F)cc(F)c4)NC(=O)Cn4nc(C(F)F)c5c4C(F)(F)[C@@H]4C[C@H]54)nc4nc(-c5cccc(Cl)n5)ccc4c3=O)c21` (atropisomer, axis not shown; (P)) [Example 50, N-((S)-1-((3P)-3-(4-chloro-1-methyl-3-(methylsulfonamido)-1H -indazol-7-yl)-7-(6-chloropyridin-2-yl)-4-oxo-3,4-dihydropyrido[2,3-d]pyrimidin-2-yl)-2-(3,5-difluorophenyl)ethyl)-2-((3bS,4aR)-3-(difluoromethyl)-5,5-difluoro-3b,4,4a,5-tetrahydro-1H-cyclopropa[3,4]cyclopenta[1,2-c]pyrazol-1-yl)acetamide] were 0.056 nM and above 100 nM.
For `Cn1nc(NS(C)(=O)=O)c2c(Cl)ccc(-n3c([C@H](Cc4cc(F)cc(F)c4)NC(=O)Cn4nc(C(F)F)c5c4C(F)(F)[C@@H]4C[C@H]54)nc4ncc(-c5cccc(C(F)(F)F)n5)cc4c3=O)c21` (atropisomer, axis not shown; (P)) [Example 1, N-((S)-1-((3P)-3-(4-chloro-1-methyl-3-(methylsulfonamido)-1H-indazol-7-yl)-4-oxo-6-(6-(trifluoromethyl)pyridin-2-yl)-3,4-dihydropyrido[2,3-d]pyrimidin-2-yl)-2-(3,5-difluorophenyl)ethyl)-2-((3bS,4aR)-3-(difluoromethyl)-5,5-difluoro-3b,4,4a,5-tetrahydro-1H-cyclopropa[3,4]cyclopenta[1,2-c]pyrazol-1-yl)acetamide], in that order: 0.055 nM and above 100 nM.
As to `Cn1nc(NS(C)(=O)=O)c2c(Cl)ccc(-n3c([C@H](Cc4cc(F)cc(F)c4)NC(=O)Cn4nc(C(F)F)c5c4C(F)(F)[C@@H]4C[C@H]54)nc4nc(-c5cc(C(F)(F)F)ncn5)ccc4c3=O)c21` (atropisomer, axis not shown; (P)) [Example 15, N-((S)-1-((3P)-3-(4-chloro-1-methyl-3-(methylsulfonamido)-1H-indazol-7-yl)-4-oxo-7-(6-(trifluoromethyl)pyrimidin-4-yl)-3,4-dihydropyrido[2,3-d]pyrimidin-2-yl)-2-(3,5-difluorophenyl)ethyl)-2-((3bS,4aR)-3-(difluoromethyl)-5,5-difluoro-3b,4,4a,5-tetrahydro-1H-cyclopropa[3,4]cyclopenta[1,2-c]pyrazol-1-yl)acetamide], in the series on recombinant NL4-3 virus, the EC50 was found to be 0.025 nM. Moreover, the 50% cytotoxic concentration (CC50) at 4 day in series [1] is above 100 nM.
Taken in the same sequence, the figures for `Cn1nc(NS(C)(=O)=O)c2c(Cl)ccc(-n3c([C@H](Cc4cc(F)cc(F)c4)NC(=O)Cn4nc(C(F)F)c5c4C(F)(F)[C@@H]4C[C@H]54)nc4nc(-c5ccc6scnc6c5)ccc4c3=O)c21` (atropisomer, axis not shown; (P)) [Example 72, N-((S)-1-(7-(benzo[d]thiazol-5-yl)-(3P)-3-(4-chloro-1-methyl-3-(methylsulfonamido)-1H-indazol-7-yl)-4-oxo-3,4-dihydropyrido[2,3-d]pyrimidin-2-yl)-2-(3,5-difluorophenyl)ethyl)-2-((3bS,4aR)-3-(difluoromethyl)-5,5-difluoro-3b,4,4a,5-tetrahydro-1H-cyclopropa[3,4]cyclopenta[1,2-c]pyrazol-1-yl)acetamide] were 0.11 nM and above 100 nM.
Taken in the same sequence, the figures for `Cc1ccnc(-c2ccc3c(=O)n(-c4ccc(Cl)c5c(NS(C)(=O)=O)nn(C)c45)c([C@H](Cc4cc(F)cc(F)c4)NC(=O)Cn4nc(C(F)F)c5c4C(F)(F)[C@@H]4C[C@H]54)nc3n2)c1` (atropisomer, axis not shown; (P)) [Example 49, N-((S)-1-((3P)-3-(4-chloro-1-methyl-3-(methylsulfonamido)-1H-indazol-7-yl)-7-(4-methylpyridin-2-yl)-4-oxo-3,4-dihydropyrido[2,3-d]pyrimidin-2-yl)-2-(3,5-difluorophenyl)ethyl)-2-((3bS,4aR)-3-(difluoromethyl)-5,5-difluoro-3b,4,4a,5-tetrahydro-1H-cyclopropa[3,4]cyclopenta[1,2-c]pyrazol-1-yl)acetamide] were 0.018 nM and above 100 nM.
Taken in the same sequence, the figures for `Cn1nc(NS(C)(=O)=O)c2c(Cl)ccc(-n3c([C@H](Cc4cc(F)cc(F)c4)NC(=O)Cn4nc(C(F)F)c5c4C(F)(F)[C@@H]4C[C@H]54)nc4nc(-c5cncnc5)ccc4c3=O)c21` (atropisomer, axis not shown; (P)) [Example 55, N-((S)-1-((3P)-3-(4-chloro-1-methyl-3-(methylsulfonamido)-1H-indazol-7-yl)-4-oxo-7-(pyrimidin-5-yl)-3,4-dihydropyrido[2,3-d]pyrimidin-2-yl)-2-(3,5-difluorophenyl)ethyl)-2-((3bS,4aR)-3-(difluoromethyl)-5,5-difluoro-3b,4,4a,5-tetrahydro-1H-cyclopropa[3,4]cyclopenta[1,2-c]pyrazol-1-yl)acetamide] were 0.09 nM and above 100 nM.
Regarding `Cn1nc(NS(C)(=O)=O)c2c(Cl)ccc(-n3c([C@H](Cc4cc(F)cc(F)c4)NC(=O)Cn4nc(C(F)F)c5c4C(F)(F)[C@@H]4C[C@H]54)nc4nc(-c5ccncn5)ccc4c3=O)c21` (atropisomer, axis not shown; (P)) [Example 28, N-((S)-1-((3P)-3-(4-chloro-1-methyl-3-(methylsulfonamido)-1H-indazol-7-yl)-4-oxo-7-(pyrimidin-4-yl)-3,4-dihydropyrido[2,3-d]pyrimidin-2-yl)-2-(3,5-difluorophenyl)ethyl)-2-((3bS,4aR)-3-(difluoromethyl)-5,5-difluoro-3b,4,4a,5-tetrahydro-1H-cyclopropa[3,4]cyclopenta[1,2-c]pyrazol-1-yl)acetamide], the half-maximal effective concentration (EC50) with recombinant NL4-3 virus was determined as 0.04 nM. For the same compound, the cytotoxic concentration (CC50) at 4 day in series [1] is above 100 nM.
